In patent publication US10570179B2, “Substituted urea depsipeptide analogs as activators of the CLPP endopeptidase” (priority 2016, dated 2020):
Values after ≈ are worked out from the molar mass of the structure shown. Read-outs that look alike come from different tables or passages of the source. Numbered stars: 1 amine (or outer) side, 2 acyl side, 3 side chain; on linkers, the order of the positions; unused ones are H or OH. Bridge positions count the residues as written; N and C are the ends. Square brackets hold non-standard residues; d marks the D form. Peptide text beside a SMILES is read from it. * marks the point of attachment. X5 = O=C([C@@H]1C[C@@H](OP(=O)(O)O)CN1[*:1])[*:2]; Phe(3-Me) = Cc1cccc(C[C@H](N)C(=O)O)c1; NH(4-Cl-2-F-phenyl) = Fc1cc(Cl)ccc1N*; Pro(4R-Me) = C[C@H]1CN[C@H](C(=O)O)C1; X1 = O=C([C@@H]1CSCCN1[*:1])[*:2]; Hyp = O=C(O)[C@@H]1C[C@@H](O)CN1; NH(4-Me-phenyl) = Cc1ccc(N*)cc1; aThr = C[C@H](O)[C@H](N)C(=O)O; Pip = O=C(O)[C@@H]1CCCCN1; 4Abz = Nc1ccc(C(=O)O)cc1; CO = O=C([*:1])[*:2]

Columns and labels:
[1] = Microsomal metabolic stability; assay type: in vitro ADME, mouse
Protocol: Compounds were initially prepared by dissolving them into DMSO at a final concentration of 10 mM. NADPH regenerating solutions A and B and mouse liver microsomes (CD-1) were obtained from BD Gentest (Woburn, Mass.). Ninety-six well deep well plates were obtained from MidWest Scientific Inc (Valley Park, Mo.).
Sample preparation for microsomal stability was modified from methods of Di, L., et al., Int J Pharm. 2005 Jun. 13; 297(1-2):110-9. A set of incubation times of 0, 15, 30, 60, 120, and 240 minutes were used. Mouse liver microsomal solutions were prepared by adding 58 μL of concentrated human or mouse liver microsomes (20 mg/mL protein concentration) to 1.756 mL of 0.1 M potassium phosphate buffer (pH 7.4) and 5 μL of 0.5 M EDTA to make a 0.6381 mg/mL (protein) microsomal solution. NADPH regenerating agent contained 113 μL of NADPH A, 23 μL of NADPH B, and 315 μL of 0.1 M potassium phosphate buffer (pH 7.4). The diluted test compound solutions (2 μL) were each added directly to a 1.79 mL of liver microsomal solution. This solution was mixed and 90 μL was transferred to 6 time points plates (each in triplicate wells). For the time 0 plate, 225 μL of cold acetonitrile with internal standard ([…] warfarin) was added to each well, followed by addition of NADPH regenerating agent (22.5 μL) and no incubation. For other five time points' plate, NADPH regenerating agent (22.5 μL) was added to each well to initiate the reaction. The plates were incubated at 37° C. for the required time, followed by quenching of the reaction by adding 225 μL of cold acetonitrile with internal standard (4 μg/ml warfarin). All of the plates were sealed and mixed well at 600 rpm for 10 minutes followed by centrifugation at 4000 rpm for 20 minutes. The supernatants (120 μL) were transferred to analytical plates for analysis by LCMS. LCMS conditions were described in the materials and instrumentation section above. The metabolic stability is evaluated via the half-life from least-squares fit of the multiple time points based on first-order kinetics.

S. aureus USA 300 = test: Minimal inhibitory concentration, microbroth dilution; assay type: cell-based; conditions: Staphylococcus aureus
Outline: (§1)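 Susceptibility testing used the CLSI dilution standard, with bacteria at ~10^5 cfu/mL exposed to a two-fold compound series beginning at 200 μM final. The endpoint is the lowest concentration showing no growth after overnight incubation (37 °C, aerobic).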

E. faecails = test: as above; assay type: cell-based; conditions: Enterococcus faecalis
Outline: as §1

MRSA NRS70 = test: as above; assay type: cell-based; conditions: Staphylococcus aureus
Outline: as §1

[2] = Plasma protein binding, rapid equilibrium dialysis; assay type: in vitro ADME, human; conditions: 10 μM
Protocol: This assay determines plasma protein binding of a drug/compound and free drug concentration in plasma using rapid equilibrium dialysis, which allow the aqueous component of plasma containing the free drug/compound through a dialysis membrane (MWCO˜8,000).
Solutions were prepared at 10 mM in DMSO. Dulbecco's phosphate buffered saline (DPBS; pH 7.4) was obtained from Invitrogen (Carlsbad, Calif.). Single-Use RED (rapid equilibrium dialysis) device was obtained from Thermo scientific (Rockford, Ill.). Human plasma was obtained from Innovative Research INC (Novi, Michigan, Ill).
Sample preparation for plasma protein binding was modified from Waters' method. (Waters et al. (2008) J. Pharm. Sci. 97(10): 4586-95). The Teflon base plate with the RED inserts (MWCO 8 K) were allowed to use without any pre-condition the membrane inserts. Human plasma was thawed and centrifuged at 1000 rpm for 2 min to remove any particulates. Each compound was prepared at 10 μM in human plasma. This was done by adding 1 μL, of drug solution (10 mM in DMSO) to 1000 μL, of human plasma (0.1% DMSO). Spiked plasma solutions (300 μL) were placed into the sample chamber (indicated by the red ring) and 500 μL, of DPBS into the adjacent chamber. The plate was sealed and incubated at 37° C. on an orbital shaker (100 rpm) for 4 hours. After incubation, the seal was removed from the RED plate and the volume of the insert confirmed—little to no volume change occurred. Aliquots (50 μL) were removed from each side of the insert and dispensed into a 96-well deep plate. An equal volume of blank plasma or DPBS was added to the required wells to create analytically identical sample matrices (matrix matching). To each sample 200 μL, of ACN containing 4 μg/mL warfarin IS was added. All of the plates were sealed and mixed well at 600 rpm for 10 min and were centrifuged at 4000 rpm for 20 min. The supernatants (120 μL) were transferred to analytical plates for analysis by LCMS. Conditions for Waters ACQUITY-UPLC-MS-UV system were described separately. The test compound concentrations were quantified in both buffer and plasma chambers via peak areas relative to the internal standard. The percentage of the test compound bound to plasma was calculated on following equations: % Free=(Concentration buffer chamber/concentration plasma chamber)×100% and % Bound=100%-% Free.

[3] = microsomal metabolic stability half-life, mouse liver microsomes
[4] = USA300, read-out: Minimal Inhibitory Concentrations (μM) S. aureus USA 300, MIC
[5] = read-out: Minimal Inhibitory Concentrations (μM) E. faecails, MIC
[6] = read-out: Minimal Inhibitory Concentrations (μM) MRSA NRS70, MIC
[7] = plasma binding, % Bound, human plasma

| SMILES | Mouse [1, 3] | MIC (S. aureus USA 300; [4]) | MIC (E. faecails; [5]) | MIC (MRSA NRS70; [6]) | Human [2, 7] | Mouse ([1]; CD-1, mouse, pH 7.4) | MIC (S. aureus USA 300; USA300, MIC, read-out: Minimal Inhibitory Concentrations (μM) S. aureus USA 300) | MIC (E. faecails; MIC, read-out: Minimal Inhibitory Concentrations (μM) E. faecails) | MIC (MRSA NRS70; MIC, read-out: Minimal Inhibitory Concentrations (μM) MRSA NRS70) | Human ([2]; human, 4 h, pH 7.4) |
| --- | --- | --- | --- | --- | --- | --- | --- | --- | --- | --- |
| Cc1cccc(C[C@H](NC(=O)Nc2ccc(Cl)cc2F)C(=O)N[C@@H]2C(=O)N3C[C@H](OP(=O)(O)O)C[C@H]3C(=O)N3CCCC[C@H]3C(=O)N[C@@H](C)C(=O)N3C[C@H](C)C[C@H]3C(=O)O[C@H]2C)c1 [Compound 29, (2R,6S,8AS,14AS,16R,20S,21S,23AS)-20-((S)-2-(3-(4-CHLORO-2-FLUOROPHENYL)UREIDO)-3-(M-TOLYL)PROPANAMIDO)-2,6,21-TRIMETHYL-5,8,14,19,23-PENTAOXOOCTADECAHYDRO-1H,5H,14H,19H-PYRIDO[2,1-I]DIPYRROLO[2,1-C:2′,1′-L][1]OXA[4,7,10,13]TETRAAZACYCLOHEXADECIN-16-YL DIHYDROGEN PHOSPHATE] ({NH(4-Cl-2-F-phenyl)-CO}-[Phe(3-Me)][aThr][X5][Pip]A[Pro(4R-Me)]; ester 2-C) | >4 h | 10 µM | 20 µM | 2.5 µM | 98.8 ± 8.8% |  |  |  |  |  |
| Cc1cccc(C[C@H](NC(=O)Nc2ccc(Cl)cc2F)C(=O)N[C@@H]2C(=O)N3C[C@H](O)C[C@H]3C(=O)N3CCSC[C@H]3C(=O)N[C@@H](C)C(=O)N3C[C@H](C)C[C@H]3C(=O)O[C@H]2C)c1 [Compound 41, (S)-2-(3-(4-CHLORO-2-FLUOROPHENYL)UREIDO)-N-((6AS,8R,12S,13S,15AS,17R,21S,23AR)-8-HYDROXY-13,17,21-TRIMETHYL-6,11,15,20,23-PENTAOXOOCTADECAHYDRO-6H,11H,15H-DIPYRROLO[2,1-C:2′,1′-L][1,4]THIAZINO[3,4-I][1]OXA[4,7,10,13]TETRAAZACYCLOHEXADECIN-12-YL)-3-(M-TOLYL)PROPANAMIDE] ({NH(4-Cl-2-F-phenyl)-CO}-[Phe(3-Me)][aThr][Hyp][X1]A[Pro(4R-Me)]; ester 2-C) |  |  |  |  |  | 0.11 ± .113 h | 0.31 µM (≈ 0.266 µg/mL) | 0.625 µM (≈ 0.536 µg/mL) | 0.156 µM (≈ 0.134 µg/mL) | 99.7 ± 9.7% |
| Cc1ccc(NC(=O)N[C@@H](Cc2cccc(C)c2)C(=O)N[C@@H]2C(=O)N3C[C@H](O)C[C@H]3C(=O)N3CCSC[C@H]3C(=O)N[C@@H](C)C(=O)N3C[C@H](C)C[C@H]3C(=O)O[C@H]2C)cc1 [Compound 42, (S)—N-((6AS,8R,12S,13S,15AS,17R,21S,23AR)-8-HYDROXY-13,17,21-TRIMETHYL-6,11,15,20,23-PENTAOXOOCTADECAHYDRO-6H,11H,15H-DIPYRROLO[2,1-C:2′,1′-L][1,4]THIAZINO[3,4-I][1]OXA[4,7,10,13]TETRAAZACYCLOHEXADECIN-12-YL)-3-(M-TOLYL)-2-(3-(P-TOLYL)UREIDO)PROPANAMIDE] ({NH(4-Me-phenyl)-CO}-[Phe(3-Me)][aThr][Hyp][X1]A[Pro(4R-Me)]; ester 2-C) | 0.78 ± .783 h | 2.5 µM (≈ 2.05 µg/mL) | 2.5 µM (≈ 2.05 µg/mL) | 1.25 µM (≈ 1.02 µg/mL) | 98.1 ± 8.1% |  |  |  |  |  |
| CCOC(=O)c1ccc(NC(=O)N[C@@H](Cc2cccc(C)c2)C(=O)N[C@@H]2C(=O)N3C[C@H](O)C[C@H]3C(=O)N3CCCC[C@H]3C(=O)N[C@@H](C)C(=O)N3C[C@H](C)C[C@H]3C(=O)O[C@H]2C)cc1 [Compound 36, ETHYL 4-(3-((S)-1-(((2R,6S,8AS,14AS,16R,20S,21S,23AS)-16-HYDROXY-2,6,21-TRIMETHYL-5,8,14,19,23-PENTAOXOOCTADECAHYDRO-1H,5H,14H,19H-PYRIDO[2,1-I]DIPYRROLO[2,1-C:2′,1′-L][1]OXA[4,7,10,13]TETRAAZACYCLOHEXADECIN-20-YL)AMINO)-1-OXO-3-(M-TOLYL)PROPAN-2-YL)UREIDO)BENZOATE] ({OEt-4Abz-CO}-[Phe(3-Me)][aThr][Hyp][Pip]A[Pro(4R-Me)]; ester 2-C) | 11.23 ± 1.23 h | 2.5 µM (≈ 2.15 µg/mL) | 1.25 µM (≈ 1.07 µg/mL) | 2.5 µM (≈ 2.15 µg/mL) | 98.3 ± 8.3% |  |  |  |  |  |
